The values below come from ChEMBL document CHEMBL3822387 (Bioorg Med Chem, 2016).

Active and inactive are the calls of the source. The calls are words filed in the database; no cut-off is given here.

Data set [1] can be described thus: Cytotoxicity against rat PC12 cells assessed as reduction in cell viability at 1 to 50 uM measured after 24 hrs by MTT assay. The data set is classed as cell-based. The settings on record: pc-12, 24 h.
The test system of data set [2] is PC-12. Nature of the data set: Neuroprotective activity against H2O2-induced damage in rat PC12 cells assessed as cell viability at 1 to 10 uM preincubated for 2 hrs followed by H2O2 addition for 24 hrs by MTT assay. The data set is classed as functional, cell-based.
In data set [3] the target is Acetylcholinesterase (Electrophorus electricus, UniProt O42275).
Chain of Acetylcholinesterase (Electrophorus electricus, UniProt O42275) (O42275 whole entry): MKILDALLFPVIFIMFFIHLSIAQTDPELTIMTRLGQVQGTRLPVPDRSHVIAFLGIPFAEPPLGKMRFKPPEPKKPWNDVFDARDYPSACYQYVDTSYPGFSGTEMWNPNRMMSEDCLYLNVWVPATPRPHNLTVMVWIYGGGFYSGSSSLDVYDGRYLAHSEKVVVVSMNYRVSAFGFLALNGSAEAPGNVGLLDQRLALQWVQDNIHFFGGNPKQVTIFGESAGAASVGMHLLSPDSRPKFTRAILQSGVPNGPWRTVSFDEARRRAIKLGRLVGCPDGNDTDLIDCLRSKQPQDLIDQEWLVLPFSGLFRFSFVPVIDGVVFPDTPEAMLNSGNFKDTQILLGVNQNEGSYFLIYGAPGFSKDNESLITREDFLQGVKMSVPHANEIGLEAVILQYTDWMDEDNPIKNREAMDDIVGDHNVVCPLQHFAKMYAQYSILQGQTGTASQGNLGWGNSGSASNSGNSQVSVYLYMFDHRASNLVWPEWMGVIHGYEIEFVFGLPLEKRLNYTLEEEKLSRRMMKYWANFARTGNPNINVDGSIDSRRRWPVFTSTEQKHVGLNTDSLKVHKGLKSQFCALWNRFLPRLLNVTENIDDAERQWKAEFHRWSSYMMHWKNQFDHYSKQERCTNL
Description: Inhibition of electric eel ACHE preincubated for 6 mins followed by addition of acetylcholine iodide as substrate by Ellman's method
The target in data set [4] is Cholinesterase (Equus caballus, UniProt P81908).
Chain of Cholinesterase (Equus caballus, UniProt P81908) (P81908 whole entry): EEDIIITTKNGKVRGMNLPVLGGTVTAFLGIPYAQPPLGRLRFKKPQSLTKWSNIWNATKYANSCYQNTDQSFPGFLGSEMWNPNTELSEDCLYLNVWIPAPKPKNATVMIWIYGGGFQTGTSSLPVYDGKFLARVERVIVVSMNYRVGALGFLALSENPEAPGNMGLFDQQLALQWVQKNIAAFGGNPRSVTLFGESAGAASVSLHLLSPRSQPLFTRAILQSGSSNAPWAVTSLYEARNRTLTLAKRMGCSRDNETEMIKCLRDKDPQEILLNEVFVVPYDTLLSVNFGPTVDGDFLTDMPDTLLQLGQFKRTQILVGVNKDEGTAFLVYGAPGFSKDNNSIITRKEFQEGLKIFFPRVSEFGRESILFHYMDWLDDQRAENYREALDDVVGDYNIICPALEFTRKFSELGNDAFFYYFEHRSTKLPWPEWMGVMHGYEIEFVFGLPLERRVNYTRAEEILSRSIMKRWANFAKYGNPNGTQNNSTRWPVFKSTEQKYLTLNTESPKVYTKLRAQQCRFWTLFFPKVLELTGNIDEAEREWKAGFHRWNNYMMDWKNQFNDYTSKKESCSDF
Description: Inhibition of equine BCHE preincubated for 6 mins followed by addition of S-butyrylcholine iodide as substrate by Ellman's method
In data set [5] the target is T1, Acetylcholinesterase (Homo sapiens, UniProt P22303).
T1 sequence (P22303 whole entry): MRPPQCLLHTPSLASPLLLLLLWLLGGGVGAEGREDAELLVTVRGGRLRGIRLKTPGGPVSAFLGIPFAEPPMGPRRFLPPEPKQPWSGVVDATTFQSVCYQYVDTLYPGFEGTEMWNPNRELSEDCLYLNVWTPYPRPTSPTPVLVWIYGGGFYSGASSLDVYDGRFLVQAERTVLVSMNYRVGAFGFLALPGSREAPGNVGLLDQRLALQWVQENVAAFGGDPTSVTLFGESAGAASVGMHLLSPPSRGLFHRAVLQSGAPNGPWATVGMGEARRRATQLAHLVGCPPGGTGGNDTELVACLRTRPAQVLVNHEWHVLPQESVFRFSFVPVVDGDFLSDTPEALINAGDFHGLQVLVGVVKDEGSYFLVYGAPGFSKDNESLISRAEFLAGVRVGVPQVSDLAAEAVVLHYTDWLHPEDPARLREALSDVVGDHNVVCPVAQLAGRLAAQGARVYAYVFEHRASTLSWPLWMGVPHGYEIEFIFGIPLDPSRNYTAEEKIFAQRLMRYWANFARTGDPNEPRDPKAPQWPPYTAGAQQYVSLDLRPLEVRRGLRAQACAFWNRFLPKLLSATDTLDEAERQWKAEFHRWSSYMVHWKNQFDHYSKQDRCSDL
Description: Inhibition of human erythrocyte ACHE preincubated for 6 mins followed by addition of acetylcholine iodide as substrate by Ellman's method
The target of data set [6] is T2, Cholinesterase (Homo sapiens, UniProt P06276).
T2 sequence (P06276 whole entry): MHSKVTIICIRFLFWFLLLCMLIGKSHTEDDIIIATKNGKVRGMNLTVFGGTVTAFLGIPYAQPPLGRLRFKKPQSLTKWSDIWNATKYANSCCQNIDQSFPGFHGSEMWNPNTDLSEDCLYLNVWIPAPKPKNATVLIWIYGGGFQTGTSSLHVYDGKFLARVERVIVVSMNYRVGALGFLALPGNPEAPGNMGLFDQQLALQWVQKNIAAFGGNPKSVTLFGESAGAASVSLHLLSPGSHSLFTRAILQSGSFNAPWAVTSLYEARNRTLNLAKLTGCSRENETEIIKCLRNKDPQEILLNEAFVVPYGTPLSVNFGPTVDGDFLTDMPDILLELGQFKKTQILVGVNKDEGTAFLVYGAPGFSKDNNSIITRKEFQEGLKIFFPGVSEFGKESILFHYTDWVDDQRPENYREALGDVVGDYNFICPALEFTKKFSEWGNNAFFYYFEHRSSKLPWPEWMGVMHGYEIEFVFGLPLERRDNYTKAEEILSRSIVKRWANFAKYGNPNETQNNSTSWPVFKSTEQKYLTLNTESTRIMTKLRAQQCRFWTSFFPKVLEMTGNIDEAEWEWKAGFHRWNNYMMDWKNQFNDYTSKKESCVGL
Description: Inhibition of human serum BCHE preincubated for 6 mins followed by addition of S-butyrylcholine iodide as substrate by Ellman's method
Data set [7] is described as follows: in vitro. The settings on record: PAMPA.
For data set [8], the system named is PC-12. Briefly: Neuroprotective activity against H2O2-induced damage in rat PC12 cells assessed as cell viability at 10 uM preincubated for 2 hrs followed by H2O2 addition for 24 hrs by MTT assay. In kind it is functional, cell-based.
Data set [9] deals with T1, Acetylcholinesterase. Briefly: Mixed-type inhibition of ACHE (unknown origin) using acetylcholine iodide as substrate by Line weaver-Burk reciprocal plot analysis.
Data set [10] concerns the target T2, Cholinesterase. Nature of the data set: Competitive inhibition of BCHE (unknown origin) using […] as substrate by Line weaver-Burk reciprocal plot analysis.
Data set [11] in a line: Metal chelating activity of the compound assessed as compound-Cu2+ complex formation by measuring bathochromic shift by UV-vis spectroscopy. The data set is classed as physicochemical.
Data set [12] in a line: Metal chelating activity of the compound assessed as compound-Fe2+ complex formation by measuring maximum absorption wavelength range by UV-vis spectroscopy (reference value: 212 nm). In kind it is physicochemical.
Data set [13] can be described thus: Metal chelating activity of the compound assessed as compound-Fe3+ complex formation by UV-vis spectroscopy by measuring maximum absorption wavelength range by UV-vis spectroscopy (reference value: 212 nm). The data set is classed as physicochemical.
Data set [14] is described as follows: Metal chelating activity of the compound assessed as compound-Zn2+ complex formation by UV-vis spectroscopy by measuring maximum absorption wavelength range by UV-vis spectroscopy (reference value: 212 nm). The data set is classed as physicochemical.

With `COc1ccc2[nH]cc(CCNC(=O)CC3CCN(Cc4ccccc4C)CC3)c2c1`, the Activity entry in [1] was “Non-toxic”. The outcome in data set [2] was Active. The IC50 in [3] worked out at 2200 nM; in data set [4] it was 1280 nM; in data set [5], 3600 nM; in [6], 1030 nM. In data set [7], this molecule had a Papp at 50 ug/ml of 10.9 ×10⁻⁶ cm/s.
For the molecule `COc1ccc2[nH]cc(CCNC(C)=O)c2c1`, the result in data set [8] was Active.
Take `COc1ccc2[nH]cc(CCNC(=O)C3CCN(Cc4ccccc4[N+](=O)[O-])CC3)c2c1`: the concentration for half-maximal inhibition (IC50) in data set [3] was found to be 54200 nM; in data set [4], 28500 nM.
Regarding `O=C(CCc1c[nH]c2ccccc12)NCCC1CCN(Cc2ccccc2)CC1`, the inhibition entry in data set [9] and in data set [10] was “Active” in each case. For the same molecule, the Activity in data set [11] is recorded as 219 nm; in data set [12], 216 nm; in [13] it was 216 nm; in data set [14], 214 nm; in [1] it was “Non-toxic”. Further, the outcome in data set [2] was Active. Besides, the IC50 in data set [3] amounted to 193 nM; in [4] it was 73 nM; in [5], 273 nM; in [6], 56 nM. The molecule also displayed a Papp at 50 ug/ml in data set [7] of 6.98 ×10⁻⁶ cm/s.
Take `Cc1cccc(CN2CCC(CC(=O)NCCc3c[nH]c4ccccc34)CC2)c1`: the IC50 in [3] came out at 1630 nM; in data set [4], 950 nM; in data set [5], 4630 nM; in data set [6], 850 nM.
Consider `Cc1ccccc1CN1CCC(C(=O)NCCc2c[nH]c3ccccc23)CC1`, for which the Activity result in data set [1] is “Non-toxic”. Further, in data set [2], the outcome was Active. Further, the IC50 in data set [3] is 2250 nM; in [4], 1500 nM; in data set [5], 3560 nM; in data set [6], 400 nM. For the same molecule, the apparent permeability (Papp) at 50 ug/ml in data set [7] stood at 8.9 ×10⁻⁶ cm/s.
Turning to `COc1ccc2[nH]cc(CCNC(=O)CC3CCN(Cc4cccc(Cl)c4)CC3)c2c1`, the IC50 came to 9500 nM in [3] and 4400 nM in data set [4].
Take `O=C(NCCc1c[nH]c2ccccc12)C1CCN(Cc2ccccc2)CC1`: the IC50 in [3] is 5550 nM; in [4], 3300 nM; in data set [5], 7850 nM; in [6], 2000 nM.
In the case of `COc1ccc2[nH]cc(CCNC(=O)CC3CCN(Cc4ccccc4Cl)CC3)c2c1`, the IC50 in data set [3] was 16800 nM; in data set [4] it was 1280 nM.
In the same order, the values of `O=C(CC1CCN(Cc2ccccc2Cl)CC1)NCCc1c[nH]c2ccccc12` are 28200 nM and 1490 nM.
For the molecule `COc1ccc2[nH]cc(CCNC(=O)CC3CCN(Cc4cccc(C)c4)CC3)c2c1`, the 50% inhibitory concentration (IC50) amounted to 9500 nM in [3], 4400 nM in [4], 13500 nM in data set [5] and 1400 nM in data set [6].
`O=C(CC1CCN(Cc2cccc(Cl)c2)CC1)NCCc1c[nH]c2ccccc12`: the figures for the IC50 in data set [3] and in data set [4] were 1630 nM and 950 nM, respectively.
With `Cc1ccc(CN2CCC(CC(=O)NCCc3c[nH]c4ccccc34)CC2)cc1`, the IC50 in [3] was 1940 nM; in data set [4], 1290 nM; in [5], 4940 nM; in [6], 290 nM.
Turning to `CC(=O)[C@H]1CC[C@H]2[C@@H]3CCC4=CC(=O)CC[C@]4(C)[C@H]3CC[C@]12C` [PROGESTERONE], in data set [7], the Papp at 50 ug/ml turned out to be 5.62 ×10⁻⁶ cm/s.
`COc1ccc2[nH]cc(CCNC(=O)CC3CCN(Cc4ccc(C)cc4)CC3)c2c1`: the IC50 came to 5260 nM in [3], 1480 nM in data set [4], 9260 nM in [5] and 1060 nM in data set [6].
Turning to `COc1ccc2[nH]cc(CCNC(=O)C3CCN(Cc4ccccc4C)CC3)c2c1`, in data set [1], the Activity result is recorded as “Non-toxic”. The outcome in data set [2] was Active. Also, the IC50 in data set [3] amounted to 4420 nM; in data set [4], 3210 nM; in data set [5], 7420 nM; in data set [6], 3010 nM. Also, the Papp at 50 ug/ml in [7] was determined as 9.37 ×10⁻⁶ cm/s.
`O=C(CCc1c[nH]c2ccccc12)NC1CCN(Cc2ccccc2)CC1`: the Activity result in data set [1] was “Non-toxic”. For the same molecule, the IC50 in data set [3] stood at 5750 nM; in [4], 370 nM; in data set [5], 8320 nM; in [6] it was 120 nM.
For the molecule `COc1ccc2[nH]cc(CCNC(=O)CC3CCN(Cc4ccc(Cl)cc4)CC3)c2c1`, the values for the IC50 in [3] and in data set [4] were 20600 nM and 6480 nM, respectively.
As to `O=C(NCCc1c[nH]c2ccccc12)C1CCN(Cc2ccccc2[N+](=O)[O-])CC1`, the results for the half-maximal inhibitory concentration (IC50) in data set [3] and in data set [4] were 31500 nM and 10800 nM, respectively.
For `COc1ccc2[nH]cc(CCNC(=O)C3CCN(Cc4ccccc4)CC3)c2c1`, the IC50 came out at 9270 nM in data set [3], 8210 nM in [4], 12200 nM in [5] and 2210 nM in [6].
For `Cc1ccccc1CN1CCC(CC(=O)NCCc2c[nH]c3ccccc23)CC1`, the Activity entry in data set [1] is reported as “Non-toxic”. The result in data set [2] was Active. Moreover, the IC50 stood at 940 nM in data set [3], 1490 nM in data set [4], 1540 nM in data set [5] and 1420 nM in data set [6]. The molecule also returned a Papp at 50 ug/ml in data set [7] of 6.91 ×10⁻⁶ cm/s.
Turning to `O=C(CC1CCN(Cc2ccc(Cl)cc2)CC1)NCCc1c[nH]c2ccccc12`, the half-maximal inhibitory concentration (IC50) in [3] came out at 22400 nM; in [4] it was 5290 nM.
In the case of `O=C(CC1CCN(Cc2ccccc2)CC1)NCCc1c[nH]c2ccccc12`, the 50% inhibitory concentration (IC50) in [3] is 2100 nM; in data set [4] it was 1100 nM; in [5] it was 3800 nM; in [6], 950 nM. The same molecule returned an apparent permeability coefficient (Papp) at 50 ug/ml in data set [7] of 7.4 ×10⁻⁶ cm/s.
Regarding `Cc1c(C)c2c(c(C)c1O)CCC(C)(C(=O)O)O2` (centres undefined), in data set [8], the outcome was Active.
